Laboratory results as given in paper PMC5874590, “The Occurrence of Flavonoids and Related Compounds in Cedrus brevifolia A. Henry ex Elwes & A. Henry Needles. Inhibitory Potencies on Lipoxygenase, Linoleic Acid Lipid Peroxidation and Antioxidant Activity” (Plants, 2017).

Key:
[1] = target: T1, soybean lipoxygenase (LOX) (Glycine max, UniProt P08170); experiment: UV absorbance at […] nm; format: biochemical; conditions: 0.1 mM compound; sodium linoleate; room temperature
T1 construct: gene LOX1.1; commercial native soybean enzyme (Sigma), catalogue number or type not given; 13-hydroperoxylinoleate product points to LOX-1
T1 sequence (P08170 1-839): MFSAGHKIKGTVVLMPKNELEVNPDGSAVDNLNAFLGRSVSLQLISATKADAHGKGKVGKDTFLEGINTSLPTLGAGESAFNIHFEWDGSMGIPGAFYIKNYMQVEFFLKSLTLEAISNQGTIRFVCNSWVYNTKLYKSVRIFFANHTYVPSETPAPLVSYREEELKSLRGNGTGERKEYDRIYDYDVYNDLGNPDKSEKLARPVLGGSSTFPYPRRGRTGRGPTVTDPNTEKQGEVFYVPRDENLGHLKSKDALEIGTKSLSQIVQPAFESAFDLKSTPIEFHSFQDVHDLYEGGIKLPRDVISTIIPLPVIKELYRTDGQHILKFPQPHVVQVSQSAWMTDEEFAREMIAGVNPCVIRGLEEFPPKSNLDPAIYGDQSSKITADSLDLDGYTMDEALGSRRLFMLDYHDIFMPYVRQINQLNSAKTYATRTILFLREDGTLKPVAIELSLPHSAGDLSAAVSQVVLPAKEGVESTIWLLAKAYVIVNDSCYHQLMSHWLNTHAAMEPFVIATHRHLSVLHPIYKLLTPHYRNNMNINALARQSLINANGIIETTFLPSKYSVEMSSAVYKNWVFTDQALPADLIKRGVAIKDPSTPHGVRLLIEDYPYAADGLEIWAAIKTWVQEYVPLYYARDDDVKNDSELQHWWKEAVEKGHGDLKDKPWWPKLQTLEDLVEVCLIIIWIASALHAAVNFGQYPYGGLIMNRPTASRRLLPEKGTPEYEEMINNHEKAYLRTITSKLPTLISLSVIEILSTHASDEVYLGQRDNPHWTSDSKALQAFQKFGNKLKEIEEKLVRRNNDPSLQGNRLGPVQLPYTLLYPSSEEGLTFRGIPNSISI

[2] = target: T1, soybean lipoxygenase (LOX); experiment: UV absorbance at […] nm; format: biochemical; conditions: room temperature; product 13-hydroperoxylinoleate

| SMILES | % LOX ± SD Inhbt @ (0.1 mM) [1] | UV absorbance at 234 nm [2] |
| --- | --- | --- |
| O=C(O[C@@H]1O[C@H](CO)[C@@H](O)[C@H](O)[C@H]1O)c1ccccc1 [compound 5, benzoate glucoside] | 29 ± 1.1% | – |
| O=C(O)/C=C/c1ccc(O)cc1 [compound 13, p-coumaric acid] | 18 ± 0.6% | – |
| O=C(O)/C=C/c1ccc(O[C@@H]2O[C@H](CO)[C@@H](O)[C@H](O)[C@H]2O)cc1 [compound 14, 4-O-β-D-glucopyranyl trans-p-coumaric acid] | 100 ± 2.5% | – |
| CC1=CC(=O)CC(C)(C)[C@@]1(O)/C=C/C(C)=C\CO[C@@H]1O[C@H](CO)[C@@H](O)[C@H](O)[C@H]1O [compound 16, abscisic alcohol glucoside] | 25±1.2% | – |
| CCCCC/C=C\C/C=C\CCCCCCCC(=O)O [sodium linoleate] | – | The transformation of sodium linoleate to 13-hydroperoxylinoleate sodium was measured spectrophotometrically |

More lines, main results first:

| % LOX ± SD Inhbt @ (0.1 mM) [1] | SMILES | UV absorbance at 234 nm [2] |
| --- | --- | --- |
| 46 ± 1.0% | C[C@@H]1O[C@@H](OC[C@H]2O[C@@H](Oc3c(-c4ccc(O)cc4)oc4cc(O)cc(O)c4c3=O)[C@H](O)[C@@H](O)[C@@H]2O)[C@H](O)[C@H](O)[C@H]1O [compound 17, kaempferol-3-O-β-rutinoside] | – |
| 8 ± 0.3% | O=C(/C=C/c1ccc(O)cc1)OC[C@H]1O[C@@H](Oc2c(-c3ccc(O)cc3)oc3cc(O)cc(O)c3c2=O)[C@H](O)[C@@H](O)[C@@H]1O [compound 19, tiliroside] | – |
